pIC50: −log10 of the molar value. Active and inactive are the calls of the source. No rule for the calls is given here.
Target: HIV-1 integrase (multimerization)
Test: compounds increasing HIV-1 IN multimer formation – biochemical, TR-FRET, counter-screen for LEDGF/p75 integration inhibitor project, dose response (AID 1053171)

SMILES	IC50	pIC50
O=C1NC(=Nc2ccc(O)cc2)S/C1=C\C=C\c1ccco1	inactive	–
NC(=O)c1ccc(N=Cc2c(O)n(Cc3ccco3)c(=O)[nH]c2=O)cc1	> 53.7 µM (inactive)	–
O=C1C=C(Nc2ccccc2O)c2ccccc2C1=O	inactive	–
O=C1CCCC(O)=C1N=Nc1ccc(C(=O)O)cc1	–	5.57
O=C1C=C(O)c2[nH]c(=O)ccc2C1=O	–	5.13
COc1cc(C)cc(C(=O)O)c1C1=C(O)c2cccc(O)c2C(=O)C1=O	inactive	–
CN(C)[C@@H]1C(=O)C(C(N)=O)=C(O)[C@@]2(O)C(=O)C3=C(O)c4c(O)cccc4[C@@](C)(O)C3[C@H](O)C12 (some centres undefined)	inactive	–
C=C1c2cccc(O)c2C(O)=C2C(=O)[C@]3(O)C(O)=C(C(N)=O)C(=O)[C@@H](N(C)C)[C@@H]3[C@@H](O)[C@H]12	–	5.07
O=C1/C(=C\c2ccc(O)c(O)c2)C(c2ccccc2)=NN1c1ccccc1	–	5.06
NS(=O)(=O)c1ccc(N/N=C/c2ccc(O)c(O)c2O)c([N+](=O)[O-])c1	–	5.47
CN(C)C1C(=O)C(C(N)=O)=C(O)C2(O)C(=O)C3=C(O)c4c(O)cccc4C(C)(O)C3C(O)C12 (centres undefined)	inactive	–
O=C1c2cc(O)c(O)cc2OC(c2ccc(O)c(O)c2)C1O (centres undefined)	inactive	–
O=C1C=C(O)c2c(O)cc(O)c(O)c2C1=O	–	7.07
N/C(=N\N=C/c1ccc(-c2ccc(O)c(C(=O)O)c2)o1)N[N+](=O)[O-]	–	5.34
Cc1cc(C(=O)N/N=C/c2ccc(O)c([N+](=O)[O-])c2)c(C)n1-c1ccc(F)cc1	inactive	–
CC1=NN(c2cccc(C(=O)O)c2)C(=O)/C1=C\C=C\c1ccco1	–	5.85
O=[N+]([O-])c1cc(Br)c(O)c(C=Nc2ccc(N3CCOCC3)cc2)c1	> 53.8 µM (inactive)	–
CN(C)c1ccc(O)c2c1CC1CC3[C@@H](N(C)C)C(=O)C(C(N)=O)=C(O)[C@]3(O)C(=O)C1=C2O (some centres undefined)	–	5.60
O=c1c(O)c(-c2ccc(O)c(O)c2)oc2cc(O)cc(O)c12	–	5.27
O=c1cc2c(=O)oc3cc(O)c(O)oc3c2c(O)c1O	–	6.45
Cc1c(CC(=O)N2CCN(C(=O)C3COc4ccccc4O3)CC2)c(=O)oc2c(O)c(O)ccc12 (centres undefined)	> 53.7 µM (inactive)	–
C[n+]1c2cc(N)ccc2cc2ccc(N)cc21	> 17.9 µM (inactive)	–
O=c1c(O)c(-c2ccc(O)c(O)c2)oc2cc(O)ccc12	–	5.84
O=[N+]([O-])c1ccccc1NC(=S)N/N=C/c1ccc(O)c(O)c1	inactive	–
